In patent publication US10954214B2 (Janssen Pharmaceutica NV, priority 2016, dated 2021):

Key:
[1] = molecular target: full-length MALT1 protein (Strep-MALT1(1-824)-His) (Homo sapiens (Human), UniProt Q9UDY8); test: MALT1 Biochemical Protease Assay (Ac-LRSR-AMC substrate); conditions: 10 nM FL MALT1, 200 μM Ac-LRSR-AMC, 4 h at RT; read-out: MALT1_Biochemical activity (Ac-LRSR-amc) IC50
How it was run: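 Full-length MALT1 pre-incubated with compounds (30 μM to 0.5 nM, 11 threefold steps) for 50 min at RT. After Ac-LRSR-AMC was added, the reaction ran 4 h at RT and AMC fluorescence was read. IC50 and Hill slope from curve fitting against no-enzyme and no-compound controls.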

[2] = test system: Jurkat cells; test: PMA Induced IL2 Production In Jurkat Cells; format: cell-based; conditions: Homo sapiens, PMA/Ionomycin, 20 h, read-out: IL-2 prod h Jurkat PMA IC50
Description: Jurkat cells were maintained in complete RPMI 1640 media containing 10% fetal bovine serum, 10 mM HEPES, 100 units/mL of penicillin and 100 μg/mL of streptomycin. Prior to the assay, compounds were made 2- to 4-fold serial dilutions in DMSO. A volume of 10 μL of DMSO-diluted compound in each well were further diluted into 240 μL RPMI1640 complete media. Jurkat cells were harvested by centrifuge at 1200 RPM for 5 min, washed one time with RPMI 1640 media, and suspended in fresh complete RPMI 1640 media at concentration of 1.25×10^6 cell/mL. A volume of 160 uL of Jurkat cells (2×10^5 cells) were seeded in each well of 96 well plate-bottom plates. A volume of 20 uL of diluted compound in RMPI 1640 complete media were added to each well and incubated with Jurkat cells for 30 min at 37° C. in a 5% CO2 incubator. A volume 20 μL of diluted PMA/Ionomycin (81 nM/1.3 uM respectively, ebioscience, catalog number 00-4970-93) in RMPI 1640 complete media were added to each well. After incubation at 37° C. in 5% CO2 incubator for 20 h, supernatants were harvested. IL-2 concentration was assessed by ELISA (IL2 Duoset, R&D Systems, catalog number DY202). Colorimetric intensity at 450 nm was read by Spectramax plate reader and analyzed with Softmax Pro software. Cell viability was assessed by Cell Titer Glo kit (Promega, catalog number G7571) using Victor Luminescence reader (Victor 3V 4202938 by Perkin Elmer).

[3] = test system: IL6 secretion by TMD8 ABC-DLBCL cells; test: Human IL6 Mesoscale assay (TMD-8); format: cell-based; conditions: Homo sapiens, TMD8; TMD-8 cells, 24 h
How it was run: (§1)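 After 24 h at 37 °C with test compounds (15 μM down to 58.6 nM, 9 twofold steps, 0.3% DMSO), IL6 and IL10 secreted by 100,000 OCI-LY3 or TMD8 cells per well were measured in supernatants with a Mesoscale immunoassay. Data were scaled between DMSO wells (high) and RN486 treatment (low).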

[4] = test system: OCI-Ly3 cells; test: 4-day proliferation assay, OCI-Ly3; format: cell-based, human; conditions: Homo sapiens, 96 h, 4 days incubation, CellTiterGLO, read-out: Anti-proliferation: OCI-LY-3 IC50
How it was run: (§2)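 TMD8 and OCI-Ly3 cells were seeded at 10,000 per well and grown 4 days at 37° C, 5% CO2 without beta-mercaptoethanol. Viability was read by CellTiter-Glo luminescence. IC50 and Hill slope were fitted relative to the low control median.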

[5] = test system: TMD8 cells; test: 4-day proliferation assay, TMD8; format: cell-based; conditions: Homo sapiens, 96 h, 4 days incubation, CellTiterGLO, read-out: Anti-proliferation: TMD-8 IC50
How it was run: as §2

[6] = test system: IL10 secretion by TMD8 ABC-DLBCL cells; test: Human IL10 Mesoscale assay (TMD-8); format: cell-based; conditions: Homo sapiens, TMD8; TMD-8 cells, 24 h
How it was run: as §1

[7] = test system: IL6 secretion by OCI-LY3 ABC-DLBCL cells; test: Human IL6 Mesoscale assay (OCI-LY3); format: cell-based; conditions: Homo sapiens, 24 h
How it was run: as §1

[8] = test system: IL10 secretion by OCI-LY3 ABC-DLBCL cells; test: Human IL10 Mesoscale assay (OCI-LY3); format: cell-based; conditions: Homo sapiens, 24 h
How it was run: as §1

Chain of full-length MALT1 protein (Strep-MALT1(1-824)-His) (Q9UDY8 whole entry): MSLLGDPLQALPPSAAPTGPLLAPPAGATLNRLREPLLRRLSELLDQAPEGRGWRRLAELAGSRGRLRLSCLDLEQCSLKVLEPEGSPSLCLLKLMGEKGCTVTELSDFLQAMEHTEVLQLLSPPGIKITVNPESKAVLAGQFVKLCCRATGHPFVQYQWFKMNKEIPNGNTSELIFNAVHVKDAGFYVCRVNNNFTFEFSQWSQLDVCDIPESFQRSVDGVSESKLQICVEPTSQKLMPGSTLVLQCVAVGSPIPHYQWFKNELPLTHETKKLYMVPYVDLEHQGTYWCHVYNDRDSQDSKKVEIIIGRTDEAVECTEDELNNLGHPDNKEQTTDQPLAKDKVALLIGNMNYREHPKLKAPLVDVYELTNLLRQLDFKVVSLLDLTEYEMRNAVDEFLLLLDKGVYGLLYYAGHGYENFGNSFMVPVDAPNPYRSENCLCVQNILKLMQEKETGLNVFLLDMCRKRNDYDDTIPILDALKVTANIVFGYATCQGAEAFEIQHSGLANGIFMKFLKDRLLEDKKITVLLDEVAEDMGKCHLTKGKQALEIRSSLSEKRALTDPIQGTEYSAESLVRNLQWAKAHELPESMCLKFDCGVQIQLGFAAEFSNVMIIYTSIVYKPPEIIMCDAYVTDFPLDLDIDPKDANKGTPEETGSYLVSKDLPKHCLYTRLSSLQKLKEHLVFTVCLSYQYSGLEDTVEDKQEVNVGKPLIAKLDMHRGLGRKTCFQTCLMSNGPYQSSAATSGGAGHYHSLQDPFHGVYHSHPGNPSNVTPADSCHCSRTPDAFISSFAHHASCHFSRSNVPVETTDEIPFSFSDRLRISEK

Row | Structure (SMILES) | IC50 [1] [nM] | IC50 [2] [nM] | IC50 [3] [nM] | IC50 [4] [nM] | IC50 [5] [nM] | IC50 [6] [nM] | IC50 [7] [nM] | IC50 [8] [nM]
1 | CC(C)c1c(C(=O)Nc2cnc(-n3nccn3)c(Cl)c2)cnn1-c1cccc2ncccc12 [Cpd 26, N-(5-chloro-6-(2H-1,2,3-triazol-2-yl)pyridin-3-yl)-5-isopropyl-1-(quinolin-5-yl)-1H-pyrazole-4-carboxamide] | 631 | 790 | 575 | 4790 | 8710 | – | – | –
2 | Cc1cc2ccccc2c(-n2ncc(C(=O)Nc3cnc(-n4nccn4)c(Cl)c3)c2C(F)(F)F)n1 [Cpd 9, N-(5-Chloro-6-(2H-1,2,3-triazol-2-yl)pyridin-3-yl)-1-(3-methylisoquinolin-1-yl)-5-(trifluoromethyl)-1H-pyrazole-4-carboxamide] | 65 | 39 | 195 | ~2400 | 10700 | – | – | –
3 | O=C(Nc1cnc(-c2ncco2)c(Cl)c1)c1cnn(-c2cccc3ccncc23)c1C(F)(F)F [Cpd 22, N-(5-chloro-6-(oxazol-2-yl)pyridin-3-yl)-1-(isoquinolin-8-yl)-5-(trifluoromethyl)-1H-pyrazole-4-carboxamide] | 661 | 1860 | > 15000 | ~310 | 17000 | – | – | –
4 | O=C(Nc1cnc(-n2nccn2)c(Cl)c1)c1cnn(-c2cccc3ncccc23)c1C(F)(F)F [Cpd 8, N-(5-Chloro-6-(2H-1,2,3-triazol-2-yl)pyridin-3-yl)-1-(quinolin-5-yl)-5-(trifluoromethyl)-1H-pyrazole-4-carboxamide] | 13 | 5.2 | 32 | 110 | ~7590 | – | – | –
5 | Cc1ccc(-n2ncc(C(=O)Nc3cnc(-n4nccn4)c(Cl)c3)c2C(F)(F)F)c2cccnc12 [Cpd 28, N-(5-Chloro-6-(2H-1,2,3-triazol-2-yl)pyridin-3-yl)-1-(8-methylquinolin-5-yl)-5-(trifluoromethyl)-1H-pyrazole-4-carboxamide] | 68 | 200 | 141 | 1510 | 6610 | – | – | –
6 | O=C(Nc1cnc(-n2ncc(CO)n2)c(Cl)c1)c1cnn(-c2cccc3c(=O)[nH]ccc23)c1C(F)(F)F [Cpd 115, N-(5-chloro-6-(4-(hydroxymethyl)-2H-1,2,3-triazol-2-yl)pyridin-3-yl)-1-(1-oxo-1,2-dihydroisoquinolin-5-yl)-5-(trifluoromethyl)-1H-pyrazole-4-carboxamide] | 12 | – | 54 | 1210 | 20000 | 46 | 13 | 10
7 | N#Cc1cncc(NC(=O)c2cnn(-c3cccc4ccccc34)c2C(F)(F)F)c1 [Cpd 5, N-(5-Cyanopyridin-3-yl)-1-(naphthalen-1-yl)-5-(trifluoromethyl)-1H-pyrazole-4-carboxamide] | 214 | 140 | 282 | ~780 | > 20000 | – | – | –
8 | CCc1c(C(=O)Nc2cnc(-n3nccn3)c(Cl)c2)cnn1-c1cccc2ncccc12 [Cpd 17, N-(5-Chloro-6-(2H-1,2,3-triazol-2-yl)pyridin-3-yl)-5-ethyl-1-(quinolin-5-yl)-1H-pyrazole-4-carboxamide] | 141 | 170 | 794 | ~4370 | 9330 | – | – | –
9 | N#Cc1cc(NC(=O)c2cnn(-c3ncnc4ccsc34)c2C(F)(F)F)cnc1-n1nccn1 [Cpd 315, N-(5-cyano-6-(2H-1,2,3-triazol-2-yl)pyridin-3-yl)-1-(thieno[3,2-d]pyrimidin-4-yl)-5-(trifluoromethyl)-1H-pyrazole-4-carboxamide] | 33 | – | 447 | 1080 | 6760 | 339 | 95 | 132
10 | COc1ncc(NC(=O)c2cnn(-c3cncc4ccccc34)c2C(F)(F)F)cc1Cl [Cpd 23, N-(5-chloro-6-methoxypyridin-3-yl)-1-(isoquinolin-4-yl)-5-(trifluoromethyl)-1H-pyrazole-4-carboxamide] | 89 | 810 | 107 | 3390 | 8320 | – | – | –
11 | COc1ncc(NC(=O)c2cnn(-c3cccc4ncccc34)c2C(F)(F)F)cc1Cl [Cpd 7, N-(5-Chloro-6-methoxypyridin-3-yl)-1-(quinolin-5-yl)-5-(trifluoromethyl)-1H-pyrazole-4-carboxamide] | 41 | 130 | 166 | 430 | ~14100 | – | – | –
12 | N#Cc1cc(NC(=O)c2cnn(-c3cccc4ccncc34)c2C(F)(F)F)cnc1-n1nccn1 [Cpd 19, N-(5-cyano-6-(2H-1,2,3-triazol-2-yl)pyridin-3-yl)-1-(isoquinolin-8-yl)-5-(trifluoromethyl)-1H-pyrazole-4-carboxamide] | 229 | 410 | 1950 | 1100 | > 20000 | – | – | –
13 | O=C(Nc1cnc(-n2nccn2)c(Cl)c1)c1cnn(-c2cccc3ncc(F)cc23)c1C(F)(F)F [Cpd 25, N-(5-Chloro-6-(2H-1,2,3-triazol-2-yl)pyridin-3-yl)-1-(3-fluoroquinolin-5-yl)-5-(trifluoromethyl)-1H-pyrazole-4-carboxamide] | 72 | 210 | 174 | 3310 | ~14100 | – | – | –
14 | O=C(Nc1ccnc(C(F)(F)F)c1)c1cnn(-c2cccc3ncccc23)c1C(F)(F)F [Cpd 6, 1-(Quinolin-5-yl)-5-(trifluoromethyl)-N-(2-(trifluoromethyl)pyridin-4-yl)-1H-pyrazole-4-carboxamide] | 91 | 23 | 112 | 620 | 9330 | – | – | –
15 | O=C(Nc1ccc(-n2nccn2)c(Cl)c1)c1cnn(-c2cccc3c(=O)[nH]ccc23)c1C(F)(F)F [Cpd 129, N-(3-chloro-4-(2H-1,2,3-triazol-2-yl)phenyl)-1-(1-oxo-1,2-dihydroisoquinolin-5-yl)-5-(trifluoromethyl)-1H-pyrazole-4-carboxamide] | 16 | – | 120 | 179 | 2460 | 123 | 18 | 14
16 | CN(C)Cc1cnn(-c2ncc(NC(=O)c3cnn(-c4cccc5ncccc45)c3C(F)(F)F)cc2Cl)n1 [Cpd 137, N-(5-chloro-6-(4-((dimethylamino)methyl)-2H-1,2,3-triazol-2-yl)pyridin-3-yl)-1-(quinolin-5-yl)-5-(trifluoromethyl)-1H-pyrazole-4-carboxamide] | 23 | – | 170 | 819 | 2400 | 200 | 26 | 17
17 | O=C(Nc1cnc(-n2nccn2)c(Cl)c1)c1cnn(-c2cccc3c(=O)[nH]ccc23)c1C(F)(F)F [Cpd 116, N-(5-chloro-6-(2H-1,2,3-triazol-2-yl)pyridin-3-yl)-1-(1-hydroxyisoquinolin-5-yl)-5-(trifluoromethyl)-1H-pyrazole-4-carboxamide] | 15 | – | 13 | 344 | 6920 | 25 | 18 | 18
18 | N#Cc1cc(NC(=O)c2cnn(-c3cccc4ccccc34)c2C(F)(F)F)ccn1 [Cpd 1, N-(2-Cyanopyridin-4-yl)-1-(naphthalen-1-yl)-5-(trifluoromethyl)-1H-pyrazole-4-carboxamide] | 389 | 310 | – | – | – | – | – | –
